Results reported in US20050255111A1, “Use of an inhibitor or antagonist against tissue factor” (priority 2002, published 2005).

How the values were obtained:
IBMIR = IBMIR in vitro
TF = TF synthesis and secretion in cultured human islets (TF content by EIA); type: cell-based
Procedure: Islets were cultured for 24 h in CMRL-medium containing […] Nicotinamide, which is the standard medium used for islet culture. The medium was thereafter exchanged to CMRL-medium without Nicotinamid. After a baseline period of another 24 h, islets were handpicked for analysis of TF content. Culture was continued for 48 h with medium containing agents known to affect TF expression in monocytes and endothelial cells. These were, L-Arginin, Cyclosporin A, Enalapril, acetylcysteine and nicotinamid. The islets were harvested, the TF content analysed using a commercial EIA kit and the islets tested in the in vitro loop model.
Islets were cultured for 48 h in medium containing 0, 10, 25 and 50 mM Nicotinamid and the intracellular TF concentration assessed, see FIG. 6. The islets were also exposed to fresh human ABO compatible blood in the in vitro loop model. Samples were retrieved after 5, 15, 30 and 60 min and analysed for TAT, see FIG. 7.
Islets were cultured for 48 h in medium containing Enalapril (40 μg/ml), Cyclosporin A (10 μmol/L), L-Aginine (1 mmol/L), Nicotinamide (10 mmol/L) and the intracellular TF concentration assessed. The concentration of Tf is expressed as percentage of the untreated control, see FIG. 8.

| Structure (SMILES) | IBMIR in vitro (IBMIR) | production of tissue factor in the islets (TF content) (TF; nicotinamide 0 to 50 mM, 48 h culture) | secretion of TF (TF; nicotinamide, dose dependent) |
| --- | --- | --- | --- |
| N=C(N)c1ccc(CNC(=O)[C@@H]2CCN2C(=O)[C@H](NCC(=O)O)C2CCCCC2)cc1 [Melagatran] | abrogated | – | – |
| NC(=O)c1cccnc1 [nicotinamide] | – | dose-dependently inhibited | inhibited |
